Data taken from patent publication US20250285714A1, “A PHARMACEUTICAL PLATFORM TECHNOLOGY FOR DRUG DISCOVERY AND CONSUMER HEALTH PRODUCT DEVELOPMENT” (SINOVEDA CANADA INC., priority 2021, published 2025).

Columns and labels:
Type in all cases: cell-based, human
HepG2 cells [1] = experiment: HepG2 cell proliferation XTT assay; conditions: HepG2 in-vitro cell model
Description: Cell assays: HepG2 cells were obtained from the American Type Culture Collection (ATCC). Cryopreserved cells in DMEM with 10% DMSO were thawed and diluted 10-fold in phenol red free DMEM media containing fetal 10% bovine serum, 100 μg/ml penicillin/streptomycin, supplemented with Glutamax™ and sodium pyruvate. Subsequently, cells were centrifuged at 20 g for 10 minutes. The cells were resuspended in the same media to a concentration of 2×10^5 cells/ml. Ninety-six well cell culture treated flat bottom plates were seeded with 7.5×10^3 HepG2 cells and incubated at 37° C., 5% CO2, >95% relative humidity for 18 hours to allow cellular adhesion after which media was replaced with like media containing 1-20% FBS and various test compounds (50 μg/ml to 50 ng/ml). […] Formazan production was measured 450 nm Varioskan lux at on a spectrophotometer. Non-specific absorption was measured at 660 nm and subtracted from the reference measurement at 450 nm. […]
Ternary cannabinoid assays: For tertiary cannabinoid compound mixtures, ratio mixtures of CBD:CBC:CBN were randomly chosen between 9:3:1 to 1:1:1 and CBN:CBC:CBD between 3:2:1 to 1:1:1 in IMDM media supplemented with 20% FBS and 1% ethanol and CBD:CBC:CBN ratios between 9:3:1 to 1:1:1 in DMEM media supplemented with 1% FBS. Cannabinoids were mixed and diluted in the media ready for serial dilution. […]

HepG2 cells [2] = experiment: In-cell Western-blot protein expression in treated HepG2 cells; conditions: six hour treatment; CBD 17, CBC 23, CBN 20, Sorafenib 12, SCI-111 17, SCI-521 17 μg/ml
Description: In-cell Western-blot analysis: Protein expression was assessed by seeding 1000 HepG2 cells/well from cyro frozen stocks into 384 well optical bottom black culture plates from Thermo-Scientific (item 142761) in IMDM media with 20% FBS and 1% ethanol. […] After a six hour treatment, the cells were fixated with 4% formaldehyde for 15 minutes, permeated with 0.1% triton-x100 for 10 minutes, and left in blocking buffer (phosphate buffered saline (PBS) with 3% bovine serum albumin (BSA)) overnight at 4 degrees Celsius. The following day, the cells were rinsed with PBS, incubated with 25 μl PBS containing primary antibody (Table 1) for 3 hours at 25° C. Subsequently, the primary antibody was removed, cells were rinsed twice with PBS, and incubated with 25 μl of PBS containing the secondary antibody (Rabbit: Alexa Fluor 790 donkey anti-rabbit IgG (H+L) Lot 2409042; Mouse: Alexa Fluor 790 donkey anti-mouse IgG (H+L) Lot 2300923) at a concentration of 1:2000. Draq5 (1:2000) was added for normalization of data. After an hour incubation in the secondary antibody, the cells were rinsed with PBS and readings at 700 and 800 nm were acquired on a Licor Odyssey fluorescence imager with a resolution of 21 μm. Analysis was subsequently performed with Empiria Studio 2.1. A total of 5 samples were collected per antibody and the sample size was reduced to 3 for the statistical analysis.

HepG2 cells [3] = experiment: rtPCR TaqMan array of cancer pathway genes in treated HepG2 cells; conditions: 6 h; CBD 17, CBC 23, CBN 20, 1:1:1 17, sorafenib 12 μg/ml
Description: rt-PCR: Target cancer gene pathways will be analyzed using a custom Taqman array card exploring 91 unique genes involved with a few cancer pathways.
Two million HepG2 cells in IMDM media with 20% FBS, and 1% ethanol were seeded in T75 flasks and incubated at 37° C., 7.5% CO2 until 70-80% confluent (approx. […]). The media were replenished with media containing individual cannabinoids (CBD 17 μg/ml, CBC 23 μg/ml, CBN 20 μg/ml) and cannabinoid mixture of CBD:CBC:CBN of 1:1:1 (17 μg/ml) and incubated for 6 hours prior to harvest. […] Untreated cells were included as a negative control Glyceraldehyde-3-phosphate dehydrogenase (GAPDH) was included as an endogenous control and used for normalization of the data.
RNA was extracted using Invitrogen's Dynabead mRNA DIRECT kit using the recommended protocol to provide 50 μL of a purified mRNA solution. […] of RT master mix was mixed into the mRNA solution and the mixture left to react at 37° C. for 60 minutes. Reverse transcriptase inactivation was performed at 95° C. for 5 minutes and the resulting cDNA samples were kept at 4° C. until use. Fifty-five microliters of TaqMan Fast Advance master mix were added to an equal amount of cDNA sample containing 1 μg/100 μl of cDNA, which was loaded into each card reservoir. The cards were centrifuged twice at 1200 RPM for 3 minutes in a Legend XFR centrifuge and the rtPCR reaction was conducted in a QuantStudio7 PCR instrument using the standard settings with 40 amplification cycles.
Assessment of cancer gene pathways were carried out using custom designed TaqMan array cards exploring 86 genes linked to numerous cancer related pathways. […] In addition to individual pathways, genes linked to specific cellular processes were also explored.

In the case of C=C(C)[C@@H]1CCC(C)=C[C@H]1c1c(O)cc(CCCCC)cc1O [CBD, Cannabidiol, reference compound], the “Potency/efficacy compared to sorafenib” value (HepG2 cells [1]) is reported as “more potent”, the “Protein fold change, DVLD (Cellular Adhesion)” value (HepG2 cells [2]) is reported as 1.67 Fold change and the “Protein fold change, HER2 (Receptor)” value (HepG2 cells [2]) is reported as 1.34 Fold change. For the same molecule, the “Protein fold change, MEK PO4 (MAP kinase/PI3K)” value (HepG2 cells [2]) was 1.40 Fold change, the “Protein fold change, MET PO4 (Receptor)” value (HepG2 cells [2]) was 1.52 Fold change and the “Protein fold change, PI3K (MAP kinase/PI3K)” value (HepG2 cells [2]) was 2.05 Fold change. The “Protein fold change, PTEN (MAP kinase/PI3K)” value (HepG2 cells [2]) was 0.80 Fold change, the “Protein fold change, TEAD2 (HIPPO signaling)” value (HepG2 cells [2]) was 1.46 Fold change and the “Protein fold change, VEGA (Angiogenesis)” value (HepG2 cells [2]) was 1.33 Fold change. For the same molecule, the “Protein fold change, c-MYC (Apoptosis)” value (HepG2 cells [2]) was 1.55 Fold change, the “Protein fold change, p53 (Apoptosis)” value (HepG2 cells [2]) was 1.28 Fold change and the “rtPCR Log2 fold change relative to untreated cells, BAD (Apoptosis)” value (HepG2 cells [3]) was −1.49 Log2 fold change. The “rtPCR Log2 fold change relative to untreated cells, BAX (Apoptosis)” value (HepG2 cells [3]) was −1.103 Log2 fold change, the “rtPCR Log2 fold change relative to untreated cells, BCL2 (Apoptosis)” value (HepG2 cells [3]) was 4.139 Log2 fold change and the “rtPCR Log2 fold change relative to untreated cells, BCL2L1 (Apoptosis)” value (HepG2 cells [3]) was −1.414 Log2 fold change. The “rtPCR Log2 fold change relative to untreated cells, CAMK1 (Ca signaling)” value (HepG2 cells [3]) was −1.329 Log2 fold change, the “rtPCR Log2 fold change relative to untreated cells, CASP3 (Apoptosis)” value (HepG2 cells [3]) was −1.165 Log2 fold change and the “rtPCR Log2 fold change relative to untreated cells, CCND1 (Cell Cycle Arrest)” value (HepG2 cells [3]) was −1.396 Log2 fold change. The “rtPCR Log2 fold change relative to untreated cells, CCND2 (Cell Cycle Arrest)” value (HepG2 cells [3]) was −1.032 Log2 fold change, the “rtPCR Log2 fold change relative to untreated cells, CDK1 (Cell Cycle Arrest)” value (HepG2 cells [3]) was −1.257 Log2 fold change and the “rtPCR Log2 fold change relative to untreated cells, CDK4 (Cell Cycle Arrest)” value (HepG2 cells [3]) was −1.517 Log2 fold change. The “rtPCR Log2 fold change relative to untreated cells, CDK6 (Cell Cycle Arrest)” value (HepG2 cells [3]) was −1.224 Log2 fold change, the “rtPCR Log2 fold change relative to untreated cells, CTNNB1 (Cellular Adhesion)” value (HepG2 cells [3]) was −1.164 Log2 fold change and the “rtPCR Log2 fold change relative to untreated cells, GSK3B (Cellular Adhesion)” value (HepG2 cells [3]) was −1.409 Log2 fold change. The “rtPCR Log2 fold change relative to untreated cells, MAP1LC3A (MAP kinase)” value (HepG2 cells [3]) was −1.527 Log2 fold change, the “rtPCR Log2 fold change relative to untreated cells, MAP3K (MAP kinase)” value (HepG2 cells [3]) was −1.213 Log2 fold change and the “rtPCR Log2 fold change relative to untreated cells, MAPK8 (MAP kinase)” value (HepG2 cells [3]) was −2.27 Log2 fold change. The “rtPCR Log2 fold change relative to untreated cells, MITF (Drug Resistance)” value (HepG2 cells [3]) was −4.196 Log2 fold change, the “rtPCR Log2 fold change relative to untreated cells, MNT (Cell Cycle Arrest)” value (HepG2 cells [3]) was −1.533 Log2 fold change and the “rtPCR Log2 fold change relative to untreated cells, MTOR (PI3K/AKT/MTOR)” value (HepG2 cells [3]) was −1.055 Log2 fold change. For the same molecule, the “rtPCR Log2 fold change relative to untreated cells, PAK3 (MAP kinase)” value (HepG2 cells [3]) was −1.926 Log2 fold change, the “rtPCR Log2 fold change relative to untreated cells, PIK3C2A (PI3K/AKT/MTOR)” value (HepG2 cells [3]) was −1.161 Log2 fold change and the “rtPCR Log2 fold change relative to untreated cells, PPARG (Receptors)” value (HepG2 cells [3]) was −1.826 Log2 fold change. The “rtPCR Log2 fold change relative to untreated cells, RAC1 (MAP kinase)” value (HepG2 cells [3]) was −1.274 Log2 fold change, the “rtPCR Log2 fold change relative to untreated cells, RASA1 (MAP kinase)” value (HepG2 cells [3]) was −1.356 Log2 fold change and the “rtPCR Log2 fold change relative to untreated cells, ROCK1 (Cellular Adhesion)” value (HepG2 cells [3]) was −1.013 Log2 fold change. The “rtPCR Log2 fold change relative to untreated cells, SMAD2 (TGF signaling)” value (HepG2 cells [3]) was −1.437 Log2 fold change, the “rtPCR Log2 fold change relative to untreated cells, TAZ (HIPPO)” value (HepG2 cells [3]) was −1.766 Log2 fold change and the “rtPCR Log2 fold change relative to untreated cells, gene name not printed (Apoptosis, row r54)” value (HepG2 cells [3]) was −1.09 Log2 fold change. For the same molecule, the “rtPCR Log2 fold change relative to untreated cells, gene name not printed (Cell Cycle Arrest, row r42)” value (HepG2 cells [3]) was −1.332 Log2 fold change, the “rtPCR Log2 fold change relative to untreated cells, gene name not printed (Cellular Adhesion, row r57)” value (HepG2 cells [3]) was −1.436 Log2 fold change and the “rtPCR Log2 fold change relative to untreated cells, gene name not printed (PI3K/AKT/MTOR, row r20)” value (HepG2 cells [3]) was −1.565 Log2 fold change. The “rtPCR Log2 fold change relative to untreated cells, gene name not printed (PI3K/AKT/MTOR, row r22)” value (HepG2 cells [3]) was −1.174 Log2 fold change and the “rtPCR Log2 fold change relative to untreated cells, gene name not printed (Receptors, row r7)” value (HepG2 cells [3]) was −6.09 Log2 fold change.
